Tests used:
[1] = test system: RAW 264.7 macrophage cell line (LPS-stimulated NO production); assay: Nitric oxide inhibition: nitrite quantification with Griess reagent in LPS-stimulated macrophage cells; assay type: cell-based, mouse; conditions: nitrite in supernatant of LPS (100 ng/ml)-stimulated RAW 264.7 cells, 24 h, lowest tested concentration 25 μM
Excerpt: The mouse BALB/c macrophage cell line, RAW 264.7 BCRC No. 60001 (identical to ATCC number TIB-71), was obtained from Bioresource Collection and Research Center, Taiwan. The cells were maintained according to the protocols being cultured in 50 cm^2 plastic flasks (Nunc, Roskilde, Denmark) with the medium renewed every 3 days. LPS (from Escherichia coli, serotype 0127:B8), trypan blue and all the other chemicals, unless otherwise specified, were purchased from Aldrich-Sigma Chemical Company (St. Louis, Mo., USA).
The cells were cultured with or without a pretreatment by the test compounds and resveratrol of 25, 50, 100, and up to 200 μM as already described. Each value is the mean±SEM of three determinations. *p<0.05, each value was compared with or without the LPS-stimulated group.
The production of NO was determined by measuring the accumulated level of nitrite in the culture supernatant with the Griess reagent in LPS-stimulated macrophage cells. A quantity of 100 μl of a sample aliquot were mixed with 100 μl of the Griess reagent (0.1% N-(1-naphthyl)ethylenediamine, 1% sulfanilamide, and 2.5% phosphoric acid) in a 96-well plate and then incubated at 25° C. for 10 min. The absorbance at 550 nm was measured with an ELISA reader (MR 700, Dynatech Laboratories, Alexandria, Va., USA). NaNO2 was used as the standard to calculate the nitrite concentration.

[2] = test system: human umbilical vein endothelial cells (HUVECs) co-cultured with normal human dermal fibroblasts (NHDF); assay: Anti-angiogenesis: capillary-tube formation assay (Kurabo angiogenesis kit); assay type: cell-based; conditions: HUVEC tube formation inhibition, HUVEC/NHDF co-culture, 11 d, 1-100 μM
Protocol: Capillary-tube formation was assayed using the angiogenesis kits (Kurabo, Okayama, Japan) according to the manufacturer's instruction. Briefly, human umbilical vein endothelial cells (HUVECs) co-cultured with normal human dermal fibroblasts (NHDF), which a cultural kit originally developed by Kurabo Co. Ltd., Okayama, Japan, onto 24-well plate were incubated either with or without test compounds and resveratrol respectively at appropriate concentrations (1-100 μM) for 11 d (media replacement was performed at d 1, 4, 7, and 9). The cells were thereafter fixed with 70% cold ethanol, incubated with mouse antihuman CD31 antibody followed by incubation with an alkaline phosphatase conjugate goat antimouse antibody, and then stained with 5-bromo-4-chloro-3-indolyl phosphate/nitro blue tetrazolium to visualize tube network at d-11, respectively. In each assay, randomly selected five fields of view in each well were captured by digital camera under the light microscopy on ×40 magnification. The analysis of tube formation was then carried out by measuring total area and length of tubes per well using analytical software (by Kurabo).

[3] = test system: λ-carrageenan-induced paw edema in Wistar rats; assay: In-vivo carrageenan-induced paw edema study; conditions: rat, 20 mg/kg i.p. single dose in CMC, 5 h after carrageenan
Protocol: In this study, X-carrageenan was used to stimulate the inflammation on the rear footpad of the rats. Male albino Wistar rats (183-218 g) 4 to 6 weeks old were housed and cared under the guidelines of the Institutional Animal Care and Use Committee at the National Defense Medical Center, Taiwan. The rats were assigned to groups. For each group, 3 rats were used and marked on the tails. one of them being the control. In order to induce inflammation, 50 μl of a 1% λ-carrageenan solution in normal saline was injected into the right hind paw subplantar tissue. The development of paw edema was measured plethysmographically (Basile 7140 plethysmometer, Ugo, Varese, Italy) and recorded prior to this administration. […] Before carrageenan treatment, the volume of each […] footpad was measured (V0). […] After the λ-carrageenan challenge, each paw volume (ml) was measured hourly up to 5 h. The percentage of paw edema and the inhibition of inflammation were calculated. Edema rate (E %) was calculated as follows: E%=(Vt-V0)/V0×100; V0: volume of hind paw before 1% λ-carrageenan administration; Vt: volume of hind paw after 1% carrageenan administration at t h. Percentage of inhibition (1%) was determined as follows: 1%(Ec-Et)/Ec×100; Ec: edema rate of control group; Et: edema rate of the respective test compound at t h. […]

Row | Compound | IC50 [1] | IC50 [2] | IC50 ([1]; Mus musculus, RAW264.7) | IC50 ([2]; Homo sapiens, 264 h) | Percentage of inhibition of paw edema [3] | paw edema (increase of paw volume) ([3]; p<0.05)
1 | CC[n+]1c(/C=C/c2ccc(OC)cc2O)sc2ccccc21 [Compound 3, N-Ethyl-2-[(E)-2-(2′-hydroxy-4′-methoxyphenyl)vinyl]benzothiazolium bromide] | < 25 µM | 31.2 ± 2 µM |  |  |  | 
2 | CC[n+]1c(/C=C/c2cc(OC)c(O)c(OC)c2)sc2ccccc21 [Compound 5, N-Ethyl-2-[(E)-2-(3′,5′-dimethoxy-4′-hydroxyphenyl)vinyl]benzothiazolium bromide] | < 25 µM | 21.2 ± 1.6 µM |  |  |  | 
3 | CC[n+]1c(/C=C/c2ccc(O)c(OC)c2)sc2ccccc21 [Compound 6, N-Ethyl-2-[(E)-2-(4′-hydroxy-3′-methoxyphenyl)vinyl]benzothiazolium bromide] | < 25 µM | 19.9 ± 2.3 µM |  |  |  | 
4 | Oc1ccc(/C=C/c2cc(O)cc(O)c2)cc1 [Resveratrol (1), 3,5,4′-trihydroxy-trans-stilbene, reference compound] |  |  | 40 µM | 47.7 ± 1.1 µM |  | 
5 | N-Ethyl-2-[(E)-2-(3′,4′,5′-trimethoxyphenyl)vinyl]benzothiazolium bromide [Compound 4] | < 25 µM | 18.8 ± 1.3 µM |  |  | 69.5% | 0.21 ± 0.06 mL

Reference: patent US20150353515A1, “Novel analogs of resveratrol” (priority 2014, published 2015)
